Tests used:
[1] = tested on: cultured human mast cells (CHMC); experiment: CHMC low cell density ionomycin activation: tryptase assay; format: cell-based
[2] = tested on: cultured human mast cells (CHMC); experiment: CHMC low cell density IgE activation: tryptase assay; format: cell-based; details: anti-IgE
Summary of the method: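 CHMC resuspended in pre-warmed MT buffer at 1000-1500 cells/well (donor-dependent) and preincubated 1 hr at 37° C, then stimulated with anti-IgE for 30 min at 37° C; unstimulated wells got MT alone. Supernatant tryptase activity read with tryptase substrate after 30 min at room temperature.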

Row | IC50 [1] [µM] | IC50 [2] [µM] | IC50 ([1]; Homo sapiens, Mast cell) [µM] | IC50 ([2]; Homo sapiens, Mast cell) [µM] | SMILES
1 | 6.2 | 2.5 | – | – | CCOC(=O)C(C)Oc1ccc(Nc2ncc(C)c(Nc3ccc(OC(C)C(=O)OCC)cc3)n2)cc1 (racemic) [R926259, (±)-N2,N4-Bis[4-ethoxycarbonyl(alpha-methyl)methyleneoxyphenyl]-5-methyl-2,4-pyrimidinediamine]
2 | > 10 | 0.208 | – | – | COC(=O)C1Cc2cc(Nc3ncc(F)c(Nc4cccc(C(F)(F)F)c4)n3)ccc2O1 (racemic) [R927028, (±)-N2-(2,3-Dihydro-2-methoxycarbonylbenzofuran-5-yl)-5-fluoro-N4-(3-trifluorophenyl)-2,4-pyrimidinediamine]
3 | > 10 | 1.23 | – | – | CNC(=O)C1Cc2cc(Nc3ncc(F)c(Nc4ccc(OCCO)nc4)n3)ccc2O1 (racemic) [R927039, (±)-N2-[2,3-Dihydro-(N-methylamino)carbonylbenzofuran-5-yl]-5-fluoro-N4-[2-(2-hydroxyethyleneoxy)pyridin-5-yl]-2,4-pyrimidinediamine]
4 | > 10 | 0.788 | – | – | CNC(=O)C1Cc2cc(Nc3ncc(F)c(Nc4ccc5c(c4)OC(F)(F)O5)n3)ccc2O1 (racemic) [R927041, (±)-N2-[2,3-Dihydro-(N-methylamino)carbonylbenzofuran-5-yl]-N4-(3,4-difluoromethyleneoxyphenyl)-5-fluoro-2,4-pyrimidinediamine]
5 | > 10 | > 10 | – | – | Nc1cccc(Nc2nc(Nc3cccc(NC(=O)CCC(C(=O)O)N4C(=O)c5ccccc5C4=O)c3)ncc2F)c1 (racemic) [R950251, (±)-N4-(3-Aminophenyl)-5-fluoro-N2-(3-(3-carboxy-3-D,L-N-phtaloylamino)propylenecarbonylaminophenyl)-2,4-pyrimidinediamine]
6 | > 10 | 10 | – | – | Nc1cccc(Nc2nc(Nc3cccc(NC(=O)CCC(N)C(=O)O)c3)ncc2F)c1 (racemic) [R950255, (±)-N4-(3-Aminophenyl)-5-fluoro-N2-[3-(3-carboxy-3-amino)propylenecarbonylaminophenyl]-2,4-pyrimidinediamine]
7 | > 10 | > 10 | – | – | Fc1cnc(Cl)nc1Nc1cccc(-c2nnn[nH]2)c1 [Compound R926853]
8 | > 10 | > 10 | – | – | COC(=O)c1cc(Nc2nc(Cl)ncc2F)cc(C(F)(F)F)c1 [Compound R926861]
9 | > 10 | > 10 | – | – | Fc1cnc(Cl)nc1Nc1ccc2c(c1)CN(c1nc(Cl)ncc1F)CC2 [Compound R926910]
10 | > 10 | > 10 | – | – | CC(C)(C)OC(=O)N1CCc2ccc(Nc3nc(Cl)ncc3F)cc2C1 [Compound R926911]
11 | > 10 | > 10 | – | – | Cc1ccc(Nc2nc(Cl)ncc2F)cc1C(F)(F)F [Compound R926920]
12 | > 10 | > 10 | – | – | CC1(C)Oc2ccc(Nc3nc(Cl)ncc3F)cc2NC1=O [Compound R940322]
13 | > 10 | > 10 | – | – | O=C1COc2ccc(Nc3nc(Cl)ncc3F)nc2N1 [Compound R945298]
14 | > 10 | 1.67 | – | – | O=C1COc2cc(Nc3nc(Nc4cccc(O)c4)ncc3F)ccc2N1 [R908698]
15 | > 10 | 1.27 | – | – | CNC(=O)COc1cccc(Nc2ncc(F)c(Nc3ccc4c(c3)OCC(=O)N4)n2)c1 [R908700, N4-(1,4-Benzoxazine-3-on-7-yl)-5-fluoro-N2-((N-methylacetamido-2)-3-phenoxy)-2,4-pyrimidinediamine]
16 | 7.64 | 0.099 | – | – | CNC(=O)COc1cccc(Nc2ncc(F)c(Nc3ccc4c(c3)NC(=O)CO4)n2)c1 [R908701]
17 | > 10 | 0.801 | – | – | CNC(=O)COc1cccc(Nc2ncc(F)c(Nc3ccc4c(c3)OCCN4C)n2)c1 [R908705, 5-Fluoro-N2-[(N-methylacetamido-2)-3-phenoxy]-N4-(N-methyl-1,4-benzoxazin-7-yl)-2,4-pyrimidinediamine]
18 | > 10 | 0.996 | – | – | CN(C)CCOc1ccc(Nc2ncc(F)c(Nc3cccc(O)c3)n2)cc1 [R909236, N2-[4-(2-N,N-Dimethylamino)ethoxyphenyl]-5-fluoro-N4-(3-hydroxyphenyl)-2,4-pyrimidinediamine]
19 | > 10 | > 10 | – | – | Fc1cnc(Nc2ccc3c(c2)CCO3)nc1Nc1ccc2c(c1)CCO2 [R909237, N2,N4-Bis(dihydrobenzofuran-5-yl)-5-fluoro-2,4-pyrimidinediaminediamine]
20 | > 10 | 0.264 | – | – | O=C(COc1ccc(Nc2ncc(F)c(Nc3ccc4c(c3)OCCO4)n2)cc1)NCCO [R909239, N4-(3,4-Ethylendioxyphenyl)-5-fluoro-N2-[4-(N-2-hydroxyethylamino)carbonylmethyleneoxyphenyl]-2,4-pyrimidinediamine]

Row | IC50 [1] [µM] | IC50 [2] [µM] | IC50 ([1]; Homo sapiens, Mast cell) [µM] | IC50 ([2]; Homo sapiens, Mast cell) [µM] | SMILES
21 | > 10 | 0.262 | – | – | CNC(=O)COc1ccc(Nc2ncc(F)c(Nc3ccc4c(c3)OCCO4)n2)cc1 [R909240, N4-(3,4-Ethylendioxyphenyl)-5-fluoro-[4-(N-methylamino)carbonylmethyleneoxyphenyl]-2,4-pyrimidinediamine]
22 | > 10 | 0.567 | – | – | CCOC(=O)COc1cccc(Nc2ncc(F)c(Nc3ccc4c(c3)NCCO4)n2)c1 [R909242, N4-(1,4-Benzoxazin-6-yl)-N2-[3-ethoxyocarbonylmethyleneoxyphenyl]-5-fluoro-2,4-pyrimidinediamine]
23 | > 10 | 2.39 | – | – | CNC(=O)COc1cccc(Nc2nc(Nc3ccc4c(c3)NCCO4)ncc2F)c1 [R909247, N2-(1,4-Benzoxazin-6-yl)-5-fluoro-N4-[3-(N-methylamino)carbonylmethyleneoxyphenyl]-2,4-pyrimidinediamine]
24 | > 10 | > 10 | – | – | CNC(=O)COc1cccc(Nc2nc(Nc3cccc4c3CCO4)ncc2F)c1 [R909249, N2-(4-Dihydrobenzofuranyl)-5-fluoro-N4-[3-(N-methylamino)carbonylmethyleneoxyphenyl]-2,4-pyrimidinediamine]
25 | > 10 | 0.138 | – | – | CC(O)CNC(=O)COc1cccc(Nc2ncc(F)c(Nc3ccc4c(c3)NCCO4)n2)c1 (centres unmarked) [R909251, N4-(1,4-Benzoxazin-6-yl)-5-fluoro-N2-[3-(N-2-hydroxypropylamino)carbonylmethyleneoxyphenyl]-2,4-pyrimidinediamine]
26 | > 10 | 0.248 | – | – | O=C(COc1cccc(Nc2ncc(F)c(Nc3ccc4c(c3)NCCO4)n2)c1)NCCCO [R909252, N4-(1,4-Benzoxazin-6-yl)-5-fluoro-N2-[3-(N-3-hydroxypropylamino)carbonylmethyleneoxyphenyl]-2,4-pyrimidinediamine]
27 | > 10 | 7.96 | – | – | CNC(=O)COc1cccc(Nc2nc(Nc3ccc(OCCN(C)C)cc3)ncc2F)c1 [R909253, N2-[4-(2-N,N-Dimethylaminoethyl)oxyphenyl]-5-fluoro-N4-[3-(N-methylamino)carbonylmethyleneoxyphenyl]-2,4-pyrimidinediamine]
28 | > 10 | 0.136 | – | – | CC(C)NC(=O)COc1cccc(Nc2ncc(F)c(Nc3ccc4c(c3)NCCO4)n2)c1 [R909254, N4-(1,4-Benzoxazin-6-yl)-N2-[3-(N-isopropylamino)carbonylmethyleneoxyphenyl]-5-fluoro-2,4-pyrimidinediamine]
29 | > 10 | 1.04 | – | – | CNC(=O)COc1cccc(Nc2ncc(F)c(Nc3ccc4c(c3)N(C)C(=O)CO4)n2)c1 [R909260, 5-Fluoro-N2-[3-(N-methylaminocarbonylmethyleneoxy)phenyl]-N4-[6-(N-methyl-1,4-benzoxazin-3-onyl)]pyrimidinediamine]
30 | > 10 | 0.93 | – | – | CNC(=O)COc1cccc(Nc2ncc(F)c(Nc3ccc4c(c3)OCC(=O)N4C)n2)c1 [R909261]
31 | > 10 | 0.071 | – | – | O=C1COc2ccc(Nc3ncc(F)c(Nc4cccc(O)c4)n3)cc2N1 [R909268, N2-(1,4-Benzoxazin-3-on-6-yl)-5-fluoro-N4-(3-hydroxyphenyl)-2,4-pyrimidinediamine]
32 | > 10 | 0.671 | – | – | CCOC(=O)COc1cccc(Nc2ncc(F)c(Nc3ccc4c(c3)NC(C)(C)CO4)n2)c1 [R909308]
33 | > 10 | 0.083 | – | – | CNC(=O)COc1cccc(Nc2ncc(F)c(Nc3ccc4c(c3)NC(C)(C)CO4)n2)c1 [R909309, N4-(3,3-Dimethyl-1,4-benzoxazin-6-yl)-5-fluoro-N2-[3-(N-methylaminocarbonylmethyleneoxy)phenyl]-2,4-pyrimidinediamine]
34 | > 10 | 0.42 | – | – | FC(F)(F)c1cnc(Nc2ccc3c(c2)OCCO3)nc1Nc1ccc2c(c1)OCCO2 [R920669]
35 | > 10 | 2.18 | – | – | CCOc1ccc(Nc2nc(Nc3ccc4c(c3)OCCO4)ncc2F)cc1 [R920670, N4-(4-ethyloxyphenyl)-N2-(3,4-ethylenedioxyphenyl)-5-fluoro-2,4-pyrimidinediamine]
36 | > 10 | > 10 | – | – | Oc1cccc(Nc2nc(Nc3ccc(OCc4nnn[nH]4)cc3)ncc2F)c1 [R920818, 5-Fluoro-N4-(3-hydroxyphenyl)-N2-[4-(1,2,3,4-tetrazol-5-yl)methyleneoxyphenyl]-2,4-pyrimidinediamine]
37 | > 10 | 10 | – | – | Oc1cccc(Nc2ccnc(Nc3ccc(OCc4nn[nH]n4)cc3)n2)c1 [R920819, N4-(3-Hydroxyphenyl)-N2-[4-(1H,1,2,3,4-tetrazol-5-yl)methyleneoxyphenyl]-2,4-pyrimidinediamine]
38 | > 10 | > 10 | – | – | Cc1cnc(Nc2ccc(OCc3nnn[nH]3)cc2)nc1Nc1cccc(O)c1 [R920820, N4-(3-Hydroxyphenyl)-5-methyl-N2-[4-(1H,1,2,3,4-tetrazol-5-yl)methyleneoxyphenyl]-2,4-pyrimidinediamine]
39 | – | – | > 10 | > 10 | Oc1cccc(Nc2nc(Nc3ccc(OCc4nnn[nH]4)cc3)ncc2C(F)(F)F)c1 [R920846]

Row | SMILES | IC50 [1] [µM] | IC50 [2] [µM] | IC50 ([1]; Homo sapiens, Mast cell) [µM] | IC50 ([2]; Homo sapiens, Mast cell) [µM]
40 | Fc1cnc(Cl)nc1Nc1ccc2c(c1)CNCC2 [Compound R926912] | > 10 | > 10 | – | –
